According to BindingDB's records for doi:10.1111/j.1747-0285.2007.00520.x (Pfizer, 2007):
Several values for one entry are separate records, joined by “and”; a condition that tells them apart may be missing. Equal values may be shown once.

molecular target: Coagulation factor X (Homo sapiens, UniProt P00742); experiment: Inhibition Assay
Sequence (P00742 41-179 limits assumed): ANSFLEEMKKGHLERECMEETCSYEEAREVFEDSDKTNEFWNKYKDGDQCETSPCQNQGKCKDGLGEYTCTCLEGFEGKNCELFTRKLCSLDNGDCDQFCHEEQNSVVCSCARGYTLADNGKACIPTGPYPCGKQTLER
Sequence (P00742 235-488 limits assumed): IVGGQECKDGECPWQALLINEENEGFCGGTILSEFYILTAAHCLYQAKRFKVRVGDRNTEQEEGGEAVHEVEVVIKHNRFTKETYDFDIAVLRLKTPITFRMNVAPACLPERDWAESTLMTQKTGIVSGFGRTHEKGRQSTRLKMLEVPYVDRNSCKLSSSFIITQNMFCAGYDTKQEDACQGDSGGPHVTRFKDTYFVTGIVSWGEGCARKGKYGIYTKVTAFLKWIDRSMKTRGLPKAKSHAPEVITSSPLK

| IC50 | Compound |
| --- | --- |
| 7 nM and 1.2 nM | CS(=O)(=O)c1ccccc1-c1ccc(NC(=O)[C@H]2CC(F)CN2C(=O)Nc2ccc(Cl)cc2)c(F)c1 (stereo partly drawn) [4-Substituted Pyrrolidine Ring, 17] |
| 2.9 nM | CS(=O)(=O)c1ccccc1-c1ccc(NC(=O)[C@H]2CC(=O)CN2C(=O)Nc2ccc(Cl)cc2)c(F)c1 [4-Substituted Pyrrolidine Ring, 20] |
| 5 nM | CS(=O)(=O)c1ccccc1-c1ccc(NC(=O)[C@H]2CC(F)(F)CN2C(=O)Nc2ccc(Cl)cc2)c(F)c1 [4-Substituted Pyrrolidine Ring, 21] |
| 1 nM | COC1C[C@H](C(=O)Nc2ccc(-c3ccccc3S(C)(=O)=O)cc2F)N(C(=O)Nc2ccc(Cl)cn2)C1 (stereo partly drawn) [4-Substituted Pyrrolidine Ring, 35] |
| 33 nM | NS(=O)(=O)c1ccccc1-c1ccc(NC(=O)C2CCCN2C(=O)Nc2ccc(Br)cc2)c(F)c1 (stereo not drawn) [P1 Phenyl Ring, 22] |
| 873 nM | COc1ccc(NC(=O)N2CCCC2C(=O)Nc2ccc(-c3ccccc3S(N)(=O)=O)cc2F)cc1 (stereo not drawn) [P1 Phenyl Ring, 26] |
| 951 nM | NS(=O)(=O)c1ccccc1-c1ccc(NC(=O)C2CCCN2C(=O)Nc2ccccc2)c(F)c1 (stereo not drawn) [P1 Phenyl Ring, 27] |
| > 4000 nM | NS(=O)(=O)c1ccccc1-c1ccc(NC(=O)C2CCCN2C(=O)Nc2cccc(Cl)c2)c(F)c1 (stereo not drawn) [P1 Phenyl Ring, 28] |
| > 4000 nM | COc1cccc(NC(=O)N2CCCC2C(=O)Nc2ccc(-c3ccccc3S(N)(=O)=O)cc2F)c1 (stereo not drawn) [P1 Phenyl Ring, 32] |

The next lines start with the compound.

| Compound | IC50 |
| --- | --- |
| NS(=O)(=O)c1ccccc1-c1ccc(NC(=O)[C@H]2CC(O)CN2C(=O)Nc2ccc(Cl)cc2)c(F)c1 (stereo partly drawn) [4-Substituted Pyrrolidine Ring, 14] | 0.75 nM |
| CS(=O)(=O)c1ccccc1-c1ccc(NC(=O)[C@H]2CC(O)CN2C(=O)Nc2ccc(Cl)cn2)c(F)c1 (stereo partly drawn) [4-Substituted Pyrrolidine Ring, 34] | 4.3 nM |
| CS(=O)(=O)c1ccccc1-c1ccc(NC(=O)[C@H]2CC(O)CN2C(=O)Nc2ccc(F)cc2)c(F)c1 (stereo partly drawn) [4-Substituted Pyrrolidine Ring, 36] | 7.6 nM |
| Cc1ccc(NC(=O)N2CCCC2C(=O)Nc2ccc(-c3ccccc3S(N)(=O)=O)cc2F)cc1 (stereo not drawn) [P1 Phenyl Ring, 24] | 389 nM |
| Cc1ccc(NC(=O)N2CCCC2C(=O)Nc2ccc(-c3ccccc3S(N)(=O)=O)cc2F)cc1F (stereo not drawn) [P1 Phenyl Ring, 25] | 516 nM |
| NS(=O)(=O)c1ccccc1-c1ccc(NC(=O)C2CCCN2C(=O)Nc2ccc(Cl)c(Cl)c2)c(F)c1 (stereo not drawn) [P1 Phenyl Ring, 29] | > 4000 nM |
| CCc1ccc(NC(=O)N2CCCC2C(=O)Nc2ccc(-c3ccccc3S(N)(=O)=O)cc2F)cc1 (stereo not drawn) [P1 Phenyl Ring, 30] | > 4000 nM |
| NS(=O)(=O)c1ccccc1-c1ccc(NC(=O)C2CCCN2C(=O)Nc2ccc(C(F)(F)F)cc2)c(F)c1 (stereo not drawn) [P1 Phenyl Ring, 31] | > 4000 nM |
| NS(=O)(=O)c1ccccc1-c1ccc(NC(=O)C2CCCN2C(=O)Nc2ccccc2F)c(F)c1 (stereo not drawn) [P1 Phenyl Ring, 33] | > 4000 nM |
